PMC4206749 (Toxicological Research, 2014)
Marks after values point to notes of the source that are not given here.

Columns and labels:
[1] = tested on: S. typhimurium strain TA100 and TA98, E. coli strain WP2uvrA; conditions: presence and absence of the S9 mix, 0.02~5000 μg per plate; cited from earlier work
[2] = tested on: Salmonella typhimurium strain TA1535; experiment: Bacterial reverse mutation assay; format: cell-based
[3] = tested on: Salmonella typhimurium strain TA100; experiment: Bacterial reverse mutation assay; format: cell-based
[4] = tested on: Salmonella typhimurium strain TA1537; experiment: Bacterial reverse mutation assay; format: cell-based
[5] = tested on: Salmonella typhimurium strain TA98; experiment: Bacterial reverse mutation assay; format: cell-based
[6] = tested on: Escherichia coli strain (WP2 uvrA); experiment: Bacterial reverse mutation assay; format: cell-based; conditions: E. coli
[7] = tested on: L5178Y Tk^+/− mouse lymphoma cells; experiment: In vitro comet assay; format: cell-based; conditions: for % DNA in tail / Olive moment / Tail length / Tail moment: 4 hr; for Comet parameters compared to vehicle: p < 0.05
[8] = tested on: CHL cells (Chinese hamster lung fibroblast cell line); experiment: In vitro chromosomal aberration assay; format: cell-based
[9] = positive control 35 μg/ml with S9 mix
[10] = positive control 15 μg/ml without S9 mix
[11] = positive control 10 μg/ml, with metabolic activation, short term treatment

Oc1ccc(/C=C/c2cc(O)cc(O)c2)cc1 [Resveratrol]
Bacterial reverse mutation assay result [1]: negative

[N-]=[N+]=[N-].[Na+] [NaN3, sodium azide, reference compound]
Number of reverse mutants/plate (Mean ± SD) ([2]; TA1535, without S9 activation, positive control 0.5 μg/plate): 151 ± 17 reverse mutants/plate

Nc1ccc2cc3ccccc3cc2c1 [2-AA, 2-aminoanthracene, reference compound]
Number of reverse mutants/plate (Mean ± SD) ([2]; TA1535, with S9 activation, positive control 2.0 μg/plate): 156 ± 6 reverse mutants/plate
Number of reverse mutants/plate (Mean ± SD) ([3]; TA100, with S9 activation, positive control 1.0 μg/plate): 598 ± 20 reverse mutants/plate
Number of reverse mutants/plate (Mean ± SD) ([4]; TA1537, with S9 activation, positive control 2.0 μg/plate): 118 ± 16 reverse mutants/plate
Number of reverse mutants/plate (Mean ± SD) ([5]; TA98, with S9 activation, positive control 0.5 μg/plate): 232 ± 9 reverse mutants/plate
Number of reverse mutants/plate (Mean ± SD) ([6]; with S9 activation, positive control 10 μg/plate): 428 ± 21 reverse mutants/plate

c1ccc2c(c1)cc1ccc3cccc4ccc2c1c34 [BaP, benzo(A)pryene, reference compound]
% DNA in tail [7, 9]: 49.14 ± 3.29 %
Olive moment [7, 9]: 13.74 ± 1.97 μm
Tail length [7, 9]: 80.29 ± 6.24 μm
Tail moment [7, 9]: 42.15 ± 3.98 μm
Comet parameters compared to vehicle ([7]; positive control with S9 mix): increased significantly

Nc1c2ccccc2nc2ccccc12 [9-AA, 9-aminoacridine, reference compound]
Number of reverse mutants/plate (Mean ± SD) ([4]; TA1537, without S9 activation, positive control 80 μg/plate): 151 ± 11 reverse mutants/plate

CO[C@@]12[C@H](COC(N)=O)C3=C(C(=O)C(C)=C(N)C3=O)N1C[C@@H]1N[C@@H]12 [MMC, mitomycin C, reference compound]
Gap ([8]; positive control 0.5 μg/ml, continuous treatment, 200 cells): 8

COS(C)(=O)=O [MMS, methyl methansulfonate, reference compound]
% DNA in tail [7, 10]: 51.29 ± 4.26 %
Olive moment [7, 10]: 14.68 ± 1.01 μm
Tail length [7, 10]: 97.21 ± 6.75 μm
Tail moment [7, 10]: 58.13 ± 6.12 μm
Comet parameters compared to vehicle ([7]; positive control without S9 mix): increased significantly

NC(=O)C(=Cc1ccc([N+](=O)[O-])o1)c1ccco1 [AF-2, 2-(2-furyl)-3-(5-nitro-2-furyl) acrylamide, reference compound]
Number of reverse mutants/plate (Mean ± SD) ([3]; TA100, without S9 activation, positive control 0.01 μg/plate): 425 ± 23 reverse mutants/plate
Number of reverse mutants/plate (Mean ± SD) ([5]; TA98, without S9 activation, positive control 0.1 μg/plate): 278 ± 20 reverse mutants/plate
Number of reverse mutants/plate (Mean ± SD) ([6]; without S9 activation, positive control 0.01 μg/plate): 334 ± 23 reverse mutants/plate

O=P1(N(CCCl)CCCl)NCCCO1 (stereo not shown) [CPA, cyclophosphamide, reference compound]
Total frequency (+) Gap [8, 11]: 132** %
Total frequency (−) Gap [8, 11]: 116** %
Frequency of cells with chromosomal aberration ([8]; positive control, treatment with metabolic activation): > 10%
